From patent publication US20220283177A1, “METHOD FOR DETECTING INTERACTION AND AFFINITY BETWEEN LIGAND AND PROTEIN” (DALIAN INSTITUTE OF CHEMICAL PHYSICS, CHINESE ACADEMY OF …, priority 2019, published 2022)
pEC50: −log10 of the molar value.

Assays:
CDK9 [1] = target: T1, CDK9 (Homo sapiens, UniProt P50750); experiment: CA-based SIP, western blotting, SNS-032; assay type: binding; conditions: 100 μM SNS-032, 293T cell lysate, CA gradient
Excerpt: The procedure of western blotting was as same as Sample 1.

CDK9 [2] = target: T1, CDK9; experiment: Solvent mixture (A.E.A.)-based SIP, western blotting, SNS-032; conditions: 100 μM SNS-032, 293T cell lysate, high percentage of A.E.A.
Excerpt: (§1) One portion of the supernatants was used for western blotting analysis and the left portion was used for MS-based quantification.

GSK-3a = GSK-3a (Homo sapiens, UniProt P49840); experiment: Solvent mixture (A.E.A.)-based SIP, quantitative proteomics, SNS-032; conditions: 100 μM SNS-032, 293T cell lysate, 13% A.E.A. (FIG. 2F)
Excerpt: as §1

[3] = withdrawn from clinical trials; cited from earlier work
NDUFV1 = NDUFV1 (Homo sapiens, UniProt P49821); experiment: Affinity evaluation by solvent mixture-based SIP dose response (western blotting)
NDUFV1, sequence (P49821 21-464): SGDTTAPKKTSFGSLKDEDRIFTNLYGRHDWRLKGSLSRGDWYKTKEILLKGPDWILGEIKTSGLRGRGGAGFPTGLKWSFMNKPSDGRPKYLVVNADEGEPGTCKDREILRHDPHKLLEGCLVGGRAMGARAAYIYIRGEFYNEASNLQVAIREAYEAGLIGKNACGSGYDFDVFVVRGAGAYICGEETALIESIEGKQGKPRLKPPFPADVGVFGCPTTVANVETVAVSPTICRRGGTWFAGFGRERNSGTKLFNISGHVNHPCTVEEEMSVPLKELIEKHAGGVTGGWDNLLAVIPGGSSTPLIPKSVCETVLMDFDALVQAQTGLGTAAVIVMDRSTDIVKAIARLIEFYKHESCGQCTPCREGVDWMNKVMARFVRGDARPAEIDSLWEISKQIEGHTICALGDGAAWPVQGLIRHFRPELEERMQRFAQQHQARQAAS
Excerpt: The calculation equation: Y=min+(max−min)/(1+10^((Log EC50−X)*Hill Slope)), Y is the protein abundance, X is the different drug concentrations, min and max are the minimum and maximum values of the corresponding protein abundance on the Y axis, respectively. Hill Slope is the absolute value of the maximum slope of the curve (i.e., the midpoint of the curve).

T1 sequence (P50750 whole entry): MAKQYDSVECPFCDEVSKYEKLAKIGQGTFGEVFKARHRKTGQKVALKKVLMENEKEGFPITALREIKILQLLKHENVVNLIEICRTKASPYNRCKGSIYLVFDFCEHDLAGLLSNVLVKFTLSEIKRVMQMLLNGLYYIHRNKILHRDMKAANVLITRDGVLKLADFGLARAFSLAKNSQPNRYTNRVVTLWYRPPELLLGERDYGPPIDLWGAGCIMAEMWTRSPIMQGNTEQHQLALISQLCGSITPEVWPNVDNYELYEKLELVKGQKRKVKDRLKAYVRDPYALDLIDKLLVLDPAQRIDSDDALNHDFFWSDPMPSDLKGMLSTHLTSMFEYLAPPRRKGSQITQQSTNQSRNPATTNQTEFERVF
T1 sequence (O60563 whole entry partner): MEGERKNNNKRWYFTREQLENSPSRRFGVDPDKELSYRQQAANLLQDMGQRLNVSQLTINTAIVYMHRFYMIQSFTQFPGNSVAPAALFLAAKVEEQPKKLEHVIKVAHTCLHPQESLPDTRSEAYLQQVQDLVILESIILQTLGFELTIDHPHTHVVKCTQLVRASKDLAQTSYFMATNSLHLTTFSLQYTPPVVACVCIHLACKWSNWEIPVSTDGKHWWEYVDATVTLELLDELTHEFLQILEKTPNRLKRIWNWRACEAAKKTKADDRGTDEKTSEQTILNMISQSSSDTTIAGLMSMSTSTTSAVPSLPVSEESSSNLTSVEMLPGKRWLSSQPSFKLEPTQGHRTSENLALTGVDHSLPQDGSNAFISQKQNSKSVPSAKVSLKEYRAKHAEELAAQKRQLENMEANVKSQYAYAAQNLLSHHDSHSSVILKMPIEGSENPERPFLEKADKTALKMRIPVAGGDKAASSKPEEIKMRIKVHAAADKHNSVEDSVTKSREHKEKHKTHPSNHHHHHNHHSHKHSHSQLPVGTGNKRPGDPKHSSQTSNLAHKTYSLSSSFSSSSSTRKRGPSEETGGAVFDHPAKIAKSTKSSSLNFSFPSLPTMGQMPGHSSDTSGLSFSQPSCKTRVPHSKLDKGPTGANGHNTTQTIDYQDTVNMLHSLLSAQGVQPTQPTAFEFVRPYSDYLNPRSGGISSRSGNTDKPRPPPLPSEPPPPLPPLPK
GSK-3a, sequence (P49840 whole entry): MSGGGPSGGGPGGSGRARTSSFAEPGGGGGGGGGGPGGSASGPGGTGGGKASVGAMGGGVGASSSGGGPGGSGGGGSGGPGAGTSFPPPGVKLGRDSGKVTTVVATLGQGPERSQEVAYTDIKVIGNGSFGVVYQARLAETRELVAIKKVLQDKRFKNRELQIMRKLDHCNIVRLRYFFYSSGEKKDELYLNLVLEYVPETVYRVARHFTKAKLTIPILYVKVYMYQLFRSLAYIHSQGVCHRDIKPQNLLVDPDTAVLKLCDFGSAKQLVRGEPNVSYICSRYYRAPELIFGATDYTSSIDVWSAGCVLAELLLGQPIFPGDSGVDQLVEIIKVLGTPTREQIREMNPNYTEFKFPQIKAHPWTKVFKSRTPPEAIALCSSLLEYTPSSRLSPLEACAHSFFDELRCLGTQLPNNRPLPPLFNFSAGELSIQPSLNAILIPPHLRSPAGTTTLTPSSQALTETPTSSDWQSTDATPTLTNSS

| SMILES | abundance of CDK9 by western blotting (CDK9 [1]) | stabilization of CDK9 by western blotting (CDK9 [2]) | average log 2 FC (H/L normalization ratio) of GSK-3a (GSK-3a) | side effects in clinical trials [3] | pEC50 (NDUFV1) |
| --- | --- | --- | --- | --- | --- |
| CC(C)(C)c1cnc(CSc2cnc(NC(=O)C3CCNCC3)s2)o1 [SNS-032] | higher as compared with that in the control group | significant stabilization shifts | 1.13 |  |  |
| COC1=C2C[C@@H](C)C[C@H](OC)[C@H](O)[C@@H](C)/C=C(\C)[C@H](OC(N)=O)[C@@H](OC)/C=C\C=C(/C)C(=O)NC(=CC1=O)C2=O [geldanamycin] |  |  |  | severe hepatotoxicity | 4.00 to 5.00 |
